Structures can show the parent of a compound that is named as a salt. Positions of bridges follow the written chain, without caps; N, C: chain ends. Non-standard residues stand in square brackets, D forms with d. Residues, ends and D or L forms follow the SMILES beside them. Orn = NCCC[C@H](N)C(=O)O; Mpa = O=C(O)CCS
Experiment: in vitro
Settings: rat, gh3-tre-luc cells

| Structure (SMILES) | CC50 at 24 h (AC50 (uM) modified / 1000) [µM] | other results |
| --- | --- | --- |
| O=C1c2ccccc2C(=O)c2ccccc21 [Anthraquinone] | > 50 | – |
| O=C1c2ccccc2Cc2ccccc21 [Anthrone] | 13.5 | – |
| Cc1nnc2n1-c1sc(CCC(=O)N3CCOCC3)cc1C(c1ccccc1Cl)=NC2 [Apafant] | > 50 | – |
| CCCCN1C(=O)[C@@H]([C@H](O)C2CCCCC2)NC(=O)C12CCN(Cc1ccc(Oc3ccc(C(=O)O)cc3)cc1)CC2 [Aplaviroc hydrochloride] | 77.3 | – |
| Nc1cc(Cl)c(N=C2NCCN2)c(Cl)c1 [Apraclonidine hydrochloride] | > 50 | – |
| CN[C@@H]1[C@@H](O[C@H]2O[C@H](CO)[C@@H](N)[C@H](O)[C@H]2O)O[C@H]2C[C@@H](N)[C@@H](O[C@H]3[C@H](O)[C@@H](O)[C@H](N)C[C@@H]3N)O[C@@H]2[C@@H]1O [Apramycin] | > 20 | – |
| C[C@@H](O[C@H]1OCCN(Cc2n[nH]c(=O)[nH]2)[C@H]1c1ccc(F)cc1)c1cc(C(F)(F)F)cc(C(F)(F)F)c1 [Aprepitant] | 11 | – |
| CCN(CC)CCCN(c1ccccc1)C1Cc2ccccc2C1 [Aprindine hydrochloride] | 2.3 | – |
| CCN(CC)CCOC(=O)C(C)(c1ccccc1)c1ccccc1 [Aprofene] | – | CC50 at 24 h (AC50 (uM) modified / 1000, Tox21_110001=Tox21_111979, viability, 1 nM T3 present, 24 h): 15.4 µM |
| CCc1cccc(N(C)C(N)=Nc2cccc3ccccc23)c1 [Aptiganel hydrochloride] | 19.6 | – |
| COC(=O)C1=C(C)NC(C)=C(C(=O)OCC(C)=O)C1c1ccccc1[N+](=O)[O-] (stereo not shown) [Aranidipine] | 8.18 | – |
| NCC[C@H](O)C(=O)N[C@@H]1C[C@H](N)[C@@H](O[C@H]2O[C@H](CN)CC[C@H]2N)[C@H](O)[C@H]1O[C@H]1O[C@H](CO)[C@@H](O)[C@H](N)[C@H]1O [Arbekacin sulfate] | > 50 | – |
| OC[C@H]1O[C@@H](Oc2ccc(O)cc2)[C@H](O)[C@@H](O)[C@@H]1O [Arbutin] | > 90 | – |
| COC(=O)C1=CCCN(C)C1 [Arecoline] | – | CC50 at 24 h (AC50 (uM) modified / 1000, Tox21_110001=Tox21_110079, viability, 1 nM T3 present, 24 h): > 50 µM |
| CC1CNc2c(cccc2S(=O)(=O)N[C@@H](CCCNC(=N)N)C(=O)N2CC[C@@H](C)C[C@@H]2C(=O)O)C1 (stereo partly shown) [Argatroban] | > 50 | – |
| NC(=O)CC[C@@H]1NC(=O)[C@H](Cc2ccccc2)NC(=O)[C@H](Cc2ccc(O)cc2)NC(=O)[C@@H](N)CSSC[C@@H](C(=O)N2CCC[C@H]2C(=O)N[C@@H](CCCN=C(N)N)C(=O)NCC(N)=O)NC(=O)[C@H](CC(N)=O)NC1=O [Argipressin acetate] | > 50 | – |
| O=C1CCc2ccc(OCCCCN3CCN(c4cccc(Cl)c4Cl)CC3)cc2N1 [Aripiprazole] | 11.8 | – |
| Clc1cccc(-c2cc(Cl)cc(Cl)c2)c1 [Aroclor 1016] | > 90 | – |
| Clc1ccc(-c2ccc(Cl)c(Cl)c2Cl)c(Cl)c1Cl [Aroclor 1260] | > 90 | – |
| CC(C)(C)NCC(O)CSc1nc(-c2ccc(C(N)=O)s2)cs1 (stereo not shown) [Arotinolol hydrochloride] | > 50 | – |
| CO[C@H]1O[C@@H]2O[C@@]3(C)CC[C@H]4[C@H](C)CC[C@@H]([C@H]1C)[C@@]24OO3 [Artemether] | > 50 | – |
| C[C@@H]1CC[C@H]2[C@@H](C)C(=O)O[C@@H]3O[C@@]4(C)CC[C@@H]1[C@]32OO4 [Artemisinin] | 4.4 | – |
| C[C@H]1[C@H](O)O[C@@H]2O[C@@]3(C)CC[C@H]4[C@H](C)CC[C@@H]1[C@@]24OO3 [Artenimol] | 1.39 | – |
| C[C@H]1[C@H](OC(=O)CCC(=O)O)O[C@@H]2O[C@@]3(C)CC[C@H]4[C@H](C)CC[C@@H]1[C@@]24OO3 [Artesunate] | 2.69 | – |
| CCCNC(C)C(=O)Nc1c(C)csc1C(=O)OC (stereo not shown) [Articaine hydrochloride] | > 20 | – |
| CCCCCCCCCCCCCCCC(=O)OC[C@H](O)[C@H]1OC(=O)C(O)=C1O [Ascorbyl palmitate] | > 50 | – |
| COC(=O)[C@H](Cc1ccccc1)NC(=O)[C@@H](N)CC(=O)O [Aspartame] (H-Asp-Phe-OMe) | > 90 | – |
| CC(=O)Oc1ccccc1C(=O)O [Aspirin] | > 90 | – |

| Structure (SMILES) | CC50 at 24 h (AC50 (uM) modified / 1000) [µM] | other results |
| --- | --- | --- |
| CNC(=O)C[C@@H](N)C(=O)N[C@@H](C(=O)N[C@@H]1C(=O)N2[C@@H]1SC(C)(C)[C@@H]2C(=O)O)c1ccc(O)cc1 [Aspoxicillin] | > 50 | – |
| CO[C@H]1[C@@H](O)[C@H](N)[C@@H](O[C@H]2O[C@H]([C@H](C)N)CC[C@H]2N)[C@H](O)[C@@H]1N(C)C(=O)CN [Astromicin] | > 50 | – |
| COC(=O)NS(=O)(=O)c1ccc(N)cc1 [Asulam] | > 90 | – |
| O=C(Nc1ccc(S(=O)(=O)N2CCOCC2)cc1)c1cc(Cl)ccc1NS(=O)(=O)c1ccc(Cl)s1 [Ataciguat] | 24 | – |
| O=C(O)c1cccc(-c2noc(-c3ccccc3F)n2)c1 [Ataluren] | > 50 | – |
| COC(=O)N[C@H](C(=O)N[C@@H](Cc1ccccc1)[C@@H](O)CN(Cc1ccc(-c2ccccn2)cc1)NC(=O)[C@@H](NC(=O)OC)C(C)(C)C)C(C)(C)C [Atazanavir] | > 50 | – |
| CCC1(c2cnc[nH]2)Cc2ccccc2C1 [Atipamezole hydrochloride] | > 50 | – |
| CNCC[C@@H](Oc1ccccc1C)c1ccccc1 [Atomoxetine hydrochloride] | 44.9 | – |
| CCOc1ccc(C[C@H]2NC(=O)CCSSC[C@@H](C(=O)N3CCC[C@H]3C(=O)N[C@@H](CCCN)C(=O)NCC(N)=O)NC(=O)[C@H](CC(N)=O)NC(=O)[C@H]([C@@H](C)O)NC(=O)[C@H]([C@@H](C)CC)NC2=O)cc1 [Atosiban] ([Mpa][dY](Et)ITNCP[Orn]G-NH2; disulfide 1-6) | > 50 | – |
| O=C1C(O)=C([C@H]2CC[C@H](c3ccc(Cl)cc3)CC2)C(=O)c2ccccc21 [Atovaquone] | 8.49 | – |
| COc1ccc(C[C@@H]2c3cc(OC)c(OC)cc3CC[N@+]2(C)CCC(=O)OCCCCCOC(=O)CC[N@@+]2(C)CCc3cc(OC)c(OC)cc3[C@H]2Cc2ccc(OC)c(OC)c2)cc1OC [Atracurium besylate] | > 20 | – |
| CCNc1nc(NC(C)C)nc(OC)n1 [Atraton] | > 90 | – |
| CCNc1nc(Cl)nc(NC(C)C)n1 [Atrazine] | > 90 | – |
| NCCO/C=C/[C@H](N)C(=O)O [Aviglycine hydrochloride] | > 50 | – |
| CNC(=O)c1ccccc1Sc1ccc2c(/C=C/c3ccccn3)n[nH]c2c1 [Axitinib] | > 50 | – |
| O=C(CCCN1CCN2CCCC2C1)c1ccc(F)cc1 (stereo not shown) [Azabuperone] | > 50 | – |
| O=C(CCN1CCN2CCCC2C1)N1c2ccccc2Sc2ccc(Cl)cc21 (stereo not shown) [Azaclorzine] | 14.6 | – |
| Clc1ccc(C2(Cn3cncn3)OCCO2)c(Cl)c1 [Azaconazole] | > 90 | – |
| OC(c1ccccc1)(c1ccccc1)C1CCNCC1 [Azacyclonol] | – | CC50 at 24 h (AC50 (uM) modified / 1000, Tox21_110001=Tox21_110399, viability, 1 nM T3 present, 24 h): > 20 µM |
| O=C1CCCCCCCCCCCN1 [Azacyclotridecan-2-one] | > 90 | – |
| COP(=O)(OC)SCn1c(=O)oc2cc(Cl)cnc21 [Azamethiphos] | > 90 | – |
| O=C(CCCN1CCN(c2ccccn2)CC1)c1ccc(F)cc1 [Azaperone] | > 50 | – |
| CCCC1C(=O)N2C(N(C)C)=Nc3ccc(C)cc3N2C1=O (stereo not shown) [Azapropazone] | > 20 | – |
| [N-]=[N+]=CC(=O)OC[C@H](N)C(=O)O [Azaserine] | > 50 | – |
| CN1C(=O)COc2c(C(=O)NC3CN4CCC3CC4)cc(Cl)cc21 (stereo not shown) [Azasetron] | 42.1 | – |
| CN1CCC(=C2c3ccccc3CCc3cccnc32)CC1 [Azatadine] | 47.7 | – |
| Cn1cnc([N+](=O)[O-])c1Sc1ncnc2nc[nH]c12 [Azathioprine] | > 50 | – |

Source: PMC6792352, “Limited Chemical Structural Diversity Found to Modulate Thyroid Hormone Receptor in the Tox21 Chemical Library” (Environmental Health Perspectives, 2019)
